Assay results as given in paper doi:10.1101/2025.05.02.651384v1 (biorxiv, 2025).

Biological target: T1, HCAR1 (GPR81) (Homo sapiens, UniProt Q9BXC0)
Assay: ebBRET Gαi2 activation
Format: cell-based
Details: Gαi2, 37 °C, agonist

T1 sequence (Q9BXC0 whole entry): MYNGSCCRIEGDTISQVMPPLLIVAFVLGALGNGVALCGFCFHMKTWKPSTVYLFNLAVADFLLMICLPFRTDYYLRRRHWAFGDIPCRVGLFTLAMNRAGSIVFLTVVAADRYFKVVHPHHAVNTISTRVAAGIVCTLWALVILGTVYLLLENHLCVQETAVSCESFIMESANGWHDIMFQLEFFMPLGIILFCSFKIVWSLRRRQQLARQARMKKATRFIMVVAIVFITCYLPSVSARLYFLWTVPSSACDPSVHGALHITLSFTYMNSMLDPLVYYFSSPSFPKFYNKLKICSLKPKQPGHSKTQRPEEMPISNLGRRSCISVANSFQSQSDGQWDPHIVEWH

Row | EC50 [µM] | SMILES
1 | 7.1 | CCOc1cc(Cl)c(C(=O)NC(=O)Nc2nc3c(s2)CN(C(C)=O)CC3)cc1N1CCOCC1 [AZ4901]
2 | 1.78 | CCOc1cc(Cl)c(C(=O)NC(=O)Nc2ncc(C)s2)cc1N1CCOCC1 [AZ2053]
3 | 2 | CCOc1cc(Cl)c(C(=O)NC(=O)Nc2nc3c(s2)CCCC3)cc1N1CCOCC1 [AZ9091]
4 | 6.8 | CCOc1cc(Cl)c(-c2ccc(-c3nc4ccccc4s3)c(=O)[nH]2)cc1N1CCOCC1 [AZ9234]

Biological target: T1, HCAR1 (GPR81)
Assay: ebBRET Gαz activation
Format: cell-based
Details: not given

Row | EC50 [µM] | SMILES
5 | 1000 | C[C@H](O)C(=O)O [(+)-lactic acid]
6 | 0.2 | O=C(O)c1cc(O)cc(O)c1 [3,5-DHBA]

Row | SMILES | EC50 [µM]
7 | CN1CCN(C(=O)Cc2sc(NC(=O)[C@H]3CC[C@H](C)CC3)nc2-c2cccs2)CC1 [GPR81 agonist 1] | 0.63
